Test results published in patent publication US10961189B2, “Spiro-lactam NMDA receptor modulators and uses thereof” (Aptinyx Inc., priority 2016, dated 2021).

Tests used:
NMDAR2B = target: T1, NMDAR2B (Homo sapiens, UniProt Q13224); test: [3H]MK-801 binding in NMDAR expressing HEK cell membranes (facilitation of NMDAR activation); assay type: biochemical; conditions: 50 μM glutamate; for EC50: read-out: B: log EC50 (converted); for Emax: 0.25 h, read-out: A: % maximal [3H]MK-801 binding relative to 1 mM glycine
T1 construct: expressed in transfected cells; host or cells: HEK cells (membrane extract)
T1 sequence (Q13224 27-1484, species assumed, other chains not shown): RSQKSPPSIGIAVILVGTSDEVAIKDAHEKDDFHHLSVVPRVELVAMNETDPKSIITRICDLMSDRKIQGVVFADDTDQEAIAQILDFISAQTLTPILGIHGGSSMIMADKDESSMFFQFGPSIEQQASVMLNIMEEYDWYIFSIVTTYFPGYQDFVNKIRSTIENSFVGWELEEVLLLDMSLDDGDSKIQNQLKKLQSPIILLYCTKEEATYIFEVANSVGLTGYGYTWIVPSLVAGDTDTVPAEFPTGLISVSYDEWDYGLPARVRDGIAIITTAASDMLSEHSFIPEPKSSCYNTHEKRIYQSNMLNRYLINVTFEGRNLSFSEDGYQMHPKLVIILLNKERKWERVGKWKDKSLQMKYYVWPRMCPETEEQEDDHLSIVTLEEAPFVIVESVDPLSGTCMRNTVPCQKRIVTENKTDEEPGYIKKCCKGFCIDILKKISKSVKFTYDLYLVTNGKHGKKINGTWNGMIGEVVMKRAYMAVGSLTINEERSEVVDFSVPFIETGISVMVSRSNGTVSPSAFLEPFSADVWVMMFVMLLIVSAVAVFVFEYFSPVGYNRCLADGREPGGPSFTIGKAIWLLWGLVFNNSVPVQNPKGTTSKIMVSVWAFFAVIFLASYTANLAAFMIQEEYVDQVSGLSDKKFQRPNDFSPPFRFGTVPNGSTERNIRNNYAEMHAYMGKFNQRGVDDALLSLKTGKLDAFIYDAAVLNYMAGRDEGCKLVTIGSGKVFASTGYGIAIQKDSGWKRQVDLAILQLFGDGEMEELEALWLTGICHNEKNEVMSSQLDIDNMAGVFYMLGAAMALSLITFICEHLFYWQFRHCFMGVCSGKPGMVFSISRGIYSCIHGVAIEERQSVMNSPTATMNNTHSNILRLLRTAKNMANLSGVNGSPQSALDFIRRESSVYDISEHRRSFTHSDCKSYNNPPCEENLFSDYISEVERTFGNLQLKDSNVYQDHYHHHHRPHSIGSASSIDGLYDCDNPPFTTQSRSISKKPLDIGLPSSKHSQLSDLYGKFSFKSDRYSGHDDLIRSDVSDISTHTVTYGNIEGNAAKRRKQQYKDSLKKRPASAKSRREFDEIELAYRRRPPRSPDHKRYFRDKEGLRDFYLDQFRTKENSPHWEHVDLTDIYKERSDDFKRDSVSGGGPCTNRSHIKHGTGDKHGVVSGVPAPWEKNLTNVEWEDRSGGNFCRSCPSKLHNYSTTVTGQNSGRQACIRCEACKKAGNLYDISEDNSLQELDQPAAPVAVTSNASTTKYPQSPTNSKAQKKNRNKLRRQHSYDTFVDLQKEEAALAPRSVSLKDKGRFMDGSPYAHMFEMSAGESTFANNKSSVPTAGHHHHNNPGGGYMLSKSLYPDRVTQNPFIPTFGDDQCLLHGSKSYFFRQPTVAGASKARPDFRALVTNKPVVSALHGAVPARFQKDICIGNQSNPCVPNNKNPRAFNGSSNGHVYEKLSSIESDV
Method: (§1) Assays were conducted as described by Moskal et al., “GLYX-13: a monoclonal antibody-derived peptide that acts as an N-methyl-D-aspartate receptor modulator,” Neuropharmacology, 49, 1077-87, 2005. These studies were designed to determine if the test compounds act to facilitate NMDAR activation in NMDAR2A, NMDAR2B, NMDAR2C or NMDAR2D expressing HEK cell membranes as measured by increases in [^3H]MK-801 binding.
(§2) In the assay, 300 μg of NMDAR expressing HEK cell membrane extract protein was preincubated for 15 minutes at 25° C. in the presence of saturating concentrations of glutamate (50 μM) and varying concentrations of test compound (1×10^15M−1×10^−7M), or 1 mM glycine. Following the addition of 0.3 μCi of [^3H]MK-801 (22.5 Ci/mmol), reactions were again incubated for 15 minutes at 25° C. (nonequilibrium conditions). Bound and free [^3H]MK-801 were separated via rapid filtration using a Brandel apparatus.
(§3) In analyzing the data, the DPM (disintegrations per minute) of [^3H]MK-801 remaining on the filter were measured for each concentration of test compound or for 1 mM glycine. The DPM values for each concentration of a ligand (N=2) were averaged. The baseline value was determined from the best fit curve of the DPM values modeled using the GraphPad program and the log(agonist) vs. response (three parameters) algorithm was then subtracted from all points in the dataset. The % maximal [^3H]MK-801 binding was then calculated relative to that of 1 mM glycine: all baseline subtracted DPM values were divided by the average value for 1 mM glycine. The EC50 and % maximal activity were then obtained from the best fit curve of the % maximal [^3H]MK-801 binding data modelled using the GraphPad program and the log(agonist) vs. response (three parameters) algorithm.
(§4) The tables below summarize the results for the wild type NMDAR agonists NMDAR2A, NMDAR2B, NMDAR2C, and NMDAR2D, and whether the compound is not an agonist (−), is an agonist (+), or is a strong agonist (++), where column A is based on the % maximal [^3H]MK-801 binding relative to 1 mM glycine (−=0; <100%=+; and >100%=++); and column B is based on log EC50 values (0=−; ≥1×10^−9 M (e.g., −8)=+; and <1×10^−9 M (e.g., −10)=++).

NMDAR2A = target: T2, NMDAR2A (Homo sapiens, UniProt Q12879); test: as above; assay type: biochemical; conditions: 50 μM glutamate; for EC50: read-out: B: log EC50 (converted); for Emax: 0.25 h, read-out: A: % maximal [3H]MK-801 binding relative to 1 mM glycine
T2 construct: expressed in transfected cells; host or cells: HEK cells (membrane extract)
T2 sequence (Q12879 23-1464, species assumed, other chains not shown): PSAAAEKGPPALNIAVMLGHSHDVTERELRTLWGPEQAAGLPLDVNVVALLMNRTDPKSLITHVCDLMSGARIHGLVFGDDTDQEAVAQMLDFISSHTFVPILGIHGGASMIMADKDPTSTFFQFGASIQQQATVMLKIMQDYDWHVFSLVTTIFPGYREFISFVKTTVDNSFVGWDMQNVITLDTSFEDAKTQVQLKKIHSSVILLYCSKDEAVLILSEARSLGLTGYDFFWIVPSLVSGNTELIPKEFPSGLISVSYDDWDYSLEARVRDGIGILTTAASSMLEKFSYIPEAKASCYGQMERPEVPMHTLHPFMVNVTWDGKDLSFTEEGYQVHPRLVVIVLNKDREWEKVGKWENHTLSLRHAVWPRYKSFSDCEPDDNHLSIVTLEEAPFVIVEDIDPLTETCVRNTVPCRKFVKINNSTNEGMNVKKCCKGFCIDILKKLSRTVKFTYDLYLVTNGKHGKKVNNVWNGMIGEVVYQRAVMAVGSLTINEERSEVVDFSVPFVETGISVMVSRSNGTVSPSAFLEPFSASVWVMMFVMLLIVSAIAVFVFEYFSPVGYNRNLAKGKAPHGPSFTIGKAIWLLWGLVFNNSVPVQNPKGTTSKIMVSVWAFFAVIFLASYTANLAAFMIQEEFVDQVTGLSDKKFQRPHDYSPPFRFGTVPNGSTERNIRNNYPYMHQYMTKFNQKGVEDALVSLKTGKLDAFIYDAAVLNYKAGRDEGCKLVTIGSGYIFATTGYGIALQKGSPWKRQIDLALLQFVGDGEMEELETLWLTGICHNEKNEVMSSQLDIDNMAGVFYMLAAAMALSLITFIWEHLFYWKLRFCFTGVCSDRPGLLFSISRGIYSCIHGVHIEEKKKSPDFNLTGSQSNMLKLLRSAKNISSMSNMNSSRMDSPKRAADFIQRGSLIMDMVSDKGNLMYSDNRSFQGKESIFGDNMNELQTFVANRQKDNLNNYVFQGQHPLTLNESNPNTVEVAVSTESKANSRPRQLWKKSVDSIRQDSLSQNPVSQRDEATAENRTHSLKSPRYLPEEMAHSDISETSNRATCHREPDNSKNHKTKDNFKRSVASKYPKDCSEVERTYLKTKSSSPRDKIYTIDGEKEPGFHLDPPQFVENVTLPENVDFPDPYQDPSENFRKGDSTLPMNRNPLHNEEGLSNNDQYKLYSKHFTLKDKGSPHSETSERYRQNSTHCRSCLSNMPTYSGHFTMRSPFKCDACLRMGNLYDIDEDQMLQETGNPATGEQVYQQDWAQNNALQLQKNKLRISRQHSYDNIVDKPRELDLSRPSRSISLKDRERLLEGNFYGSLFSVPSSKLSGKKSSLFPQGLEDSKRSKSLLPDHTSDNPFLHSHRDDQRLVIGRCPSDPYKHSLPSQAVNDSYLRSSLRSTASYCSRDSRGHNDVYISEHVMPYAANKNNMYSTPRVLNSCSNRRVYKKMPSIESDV
Method: as §1, §2, §3, §4

Sprague Dawley rats [1] = test: Porsolt forced swim test; assay type: in vivo, rat; design: key to Significance vs. vehicle: Yes: statistically significant (p<=0.05) from vehicle at dose level shown; No: not statistically significant from vehicle
Method: A non-clinical in vivo pharmacology study (Porsolt assay) was performed to measure antidepressant-like effects. A negative control (0.5% sodium carboxymethyl cellulose in 0.9% sterile saline vehicle) and a positive control (fluoxetine) are shown for comparison against test compound. The study allowed for the evaluation of the effects of each compound on the Porsolt forced swim test as assessed by the rats' response (reduced floating time) during a 5-minute swimming test.
(§5) Male 2-3 month old Sprague Dawley rats were used (Harlan, Indianapolis, Ind.). Rats were housed in Lucite cages with aspen wood chip bedding, maintained on a 12:12 light:dark cycle (lights on at 5 AM), and given ad libitum access to Purina lab chow (USA) and tap water throughout the study.
The Porsolt forced swim test adapted for use in rats was performed as described by Burgdorf et al., (The long-lasting antidepressant effects of rapastinel (GLYX-13) are associated with a metaplasticity process in the medial prefrontal cortex and hippocampus. Neuroscience 308:202-211, 2015). Animals were placed in a 46 cm tall×20 cm in diameter clear glass tube filled to 30 cm with tap water (23±1° C.) for 15 min on the first day (habituation) and 5 min on the subsequent test day. Positive control fluoxetine was dosed 3 times (24 h, 5 h and 1 h) prior to testing. Animals were tested 1 h or 24 h post-dosing with the test compounds or vehicle. Animals received a 15 min habituation session 1 day before the 5 min test. A subset of compounds tested at 1 h post-dosing were retested at 1 wk post-dosing in the same sets of animals. Water was changed after every other animal. Animals were videotaped, and floating time as defined as the minimal amount of effort required to keep the animals head above water was scored offline by a blinded experimenter with high inter-rater reliability (Pearson's r>0.9).
Each compound tested at dose level shown. Significance vs. vehicle group for each experiment is marked. […] A compound marked “No” was not statistically significant from vehicle. Data was averaged for test compound and vehicle groups (N approximately 8 per group) and the percent reduction in floating for group treated with test compound relative to group treated with vehicle is shown.

IV pharmacokinetics = assay type: in vivo, Sprague Dawley rats; conditions: rat, normal saline (* in 5% NMP, 5% Solutol HS, 90% normal saline); for AUC(0-t) / half-life / C0 / Vd: Sprague-Dawley, in vivo, iv, 2 mg/kg; for C0: read-out: C0; for Vd: read-out: Vss; for CI: intravenous 2 mg/kg
Description: The table below summarizes the results of the IV pharmacokinetics.

[2] = oral pharmacokinetics (plasma, brain, CSF); assay type: in vivo, Sprague Dawley rats; conditions: rat, per os 10 mg/kg; for AUC(0-t) / bioavailability / Tmax / Cmax: Sprague-Dawley, plasma, po, 10 mg/kg; for Tmax: normal saline (* in 5% NMP, 5% Solutol HS, 90% normal saline), read-out: Tmax; for Cmax: read-out: Cmax
Method: In another experiment, Sprague Dawley rats were dosed per os using a normal saline formulation containing 10 mg/kg of the compounds identified in the table below (except for the compounds marked with an asterisk (“*”) that were delivered in 5% NMP, 5% Solutol® HS and 90% normal saline formulation). Plasma, brain, and CSF samples were analyzed at various time points over a 24 hour period.

Sprague Dawley rats [3] = test: Bennett model of mechanical analgesia (sciatic nerve chronic constriction, paw withdrawal threshold); assay type: in vivo, rat; conditions: 150 mg/kg PO, example gabapentin control value;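 note: log paw withdrawal threshold scaled from vehicle group mean (0%) to naive 15 g value (100%)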
Method: The Bennett model of mechanical analgesia is used to assess the analgesic effects of compounds as measured by paw withdrawal threshold. Bennett GJ, Xie YK, “A peripheral mononeuropathy in rat that produces disorders of pain sensation like those seen in man,” Pain 33:87-107, 1988. […] Vehicle animals receive the surgery and then receive vehicle rather than test compound. Animals were tested 1 hr, 24 h and 1 wk post-test compound or vehicle administration.
as §5, with “used. Harlan was the supplier for all studies.” for “used (Harlan, Indianapolis, Ind.).”
Rats were anesthetized using inhaled isoflurane (2.5%). Sciatic nerve chronic constriction nerve injury surgery was performed as previously described (Bennett and Xie, 1988). An incision (˜1.5 cm in length) was made with a scalpel blade dorsally through skin on the right hind limb, parallel and posterior to femur. Using a small pointed hemostat, the biceps femoris and gluteus superficialis muscles were separated. Using curved blunt forceps, the common sciatic nerve was isolated and exposed. For the mechanical analgesia studies, the whole sciatic nerve was ligated. Using hemostats/forceps and chromic gut (5-0), the nerve was loosely ligated with a square knot; 3 ligatures, 1 mm apart were placed on the nerve. […] Testing occurred approximately 2 weeks post-surgery.
During testing, rats were acclimated to the surface of a suspended wire mesh grid (1 cm×1 cm, with the wire being 0.3 cm in diameter) for 15-20 min. Starting from the smallest, each Von Frey filament was pressed perpendicularly to the plantar surface of the affected (ipsilateral) hind paw until slightly bent and then held for 6 second. If an obvious hind paw withdrawal or a flinching behavior immediately after the withdrawal of the filament was not observed, the next larger filament was used in the same manner. In case of a response, a lower filament was used. This was repeated until six responses were collected.
For all studies, animals were baselined prior to study start to test for allodynia (defined as a paw withdrawal threshold under 5). A subset of animals was tested with gabapentin (150 mg/kg, PO) to ensure at least 50% analgesia. Once it was confirmed animals were ready for study initiation, animals were balanced across groups. All study investigators were blind to treatment conditions. Animals were dosed with 0.1, 1 or 10 mg/kg of test compound via oral gavage (PO), control sets of animals were dosed with gabapentin (150 mg/kg, PO) or vehicle (0.5% Na-CMC in 0.9% sterile saline, PO). Testing occurred 1 h post-dosing with animals retested 24 hrs and 1 week post-dosing. The percent analgesia calculations for each animal were made using the following equation: % analgesia=[(log(x)−y)/((log (z)−y)]*100, where x=the paw withdrawal threshold for the drug-treated animal in grams, y=the average of the log(x) values for the vehicle treated group, and z=the paw withdrawal threshold for naïve animals in grams (historical value of 15 used).
The results are shown in the table below where the percentage of analgesia is measured at 1 hour, 24 hours, and 1 week after compound administration. Since each study had its own gabapentin control group, an example gabapentin control value is shown.

[4] = 20 mg/kg, dosed 3 times (24 h, 5 h and 1 h) prior to testing, 1 h post-dose

Work on `NC(=O)C(CO)N1CC2(CCCCC2)C1=O` (single isomer, unassigned) [AS, 3-hydroxy-2-(l-oxo-2-azaspiro[3.5]nonan-2-yl)propanamide] yielded an EC50 (NMDAR2B) of under 1 nM, an Emax (NMDAR2B) of under 100% and an EC50 (NMDAR2A) of under 1 nM. The Emax (NMDAR2A) was under 100%, the “% reduction in float time” value (Sprague Dawley rats [1]; 0.1 mg/kg, 1 wk post-dose) was 32.0% and the Significance vs. vehicle (Sprague Dawley rats [1]; 0.1 mg/kg, 1 wk post-dose) was “No”. For the same compound, the “% reduction in float time” value (Sprague Dawley rats [1]; 0.1 mg/kg, 1 h post-dose) was 82.3% and the Significance vs. vehicle (Sprague Dawley rats [1]; 0.1 mg/kg, 1 h post-dose) was “Yes (statistically significant (p<=0.05) from vehicle at dose level shown)”.

Work on `NC(=O)C(CO)N1CC2(CCCCC2)C1=O` (single isomer, unassigned) [AT, 3-hydroxy-2-(l-oxo-2-azaspiro[3.5]nonan-2-yl)propanamide] yielded an AUC(0-t) (IV pharmacokinetics) of 2090 ng·h/mL, a half-life (IV pharmacokinetics) of 143 min and a C0 (IV pharmacokinetics) of 2760 ng/mL. For the same compound, the Vd (IV pharmacokinetics) was 1.14 L/kg, the CI (IV pharmacokinetics) was 15.94 mL/min/kg and the “A: % maximal [3H]MK-801 binding relative to 1 mM glycine” value (NMDAR2B) was “+ (<100%=+)”. The EC50 (NMDAR2B) was under 1 nM, the “A: % maximal [3H]MK-801 binding relative to 1 mM glycine” value (NMDAR2A) was “+ (<100%=+)” and the EC50 (NMDAR2A) was under 1 nM. The “% reduction in float time” value (Sprague Dawley rats [1]; 0.1 mg/kg, 1 wk post-dose) was 55.6%, the Significance vs. vehicle (Sprague Dawley rats [1]; 0.1 mg/kg, 1 wk post-dose) was “Yes (statistically significant (p<=0.05) from vehicle at dose level shown)” and the “% reduction in float time” value (Sprague Dawley rats [1]; 0.1 mg/kg, 1 h post-dose) was 63.4%. For the same compound, the Significance vs. vehicle (Sprague Dawley rats [1]; 0.1 mg/kg, 1 h post-dose) was “Yes (statistically significant (p<=0.05) from vehicle at dose level shown)”, the AUC(0-t) [2] was 8340 ng·h/mL and the bioavailability [2] was 80%. For the same compound, the Tmax [2] was 15 min, the Cmax [2] was 6520 ng/mL and the “CSF Cmax” value [2] was 1758 ng/mL. For the same compound, the “Brain Cmax” value [2] was 120 ng/mL.

Work on `CC1CCC2(CC1)CN(C(CCC(N)=O)C(N)=O)C2=O` (single isomer, unassigned) [BF, 2-(7-methyl-1-oxo-2-azaspiro[3.5]nonan-2-yl)pentanediamide] yielded an AUC(0-t) (IV pharmacokinetics) of 973 ng·h/mL, a half-life (IV pharmacokinetics) of 90.6 min and a C0 (IV pharmacokinetics) of 2220 ng/mL. For the same compound, the Vd (IV pharmacokinetics) was 1.52 L/kg, the CI (IV pharmacokinetics) was 34.13 mL/min/kg and the “A: % maximal [3H]MK-801 binding relative to 1 mM glycine” value (NMDAR2B) was “+ (<100%=+)”. For the same compound, the EC50 (NMDAR2B) was under 1 nM, the “A: % maximal [3H]MK-801 binding relative to 1 mM glycine” value (NMDAR2A) was “+ (<100%=+)” and the EC50 (NMDAR2A) was under 1 nM. The “% reduction in float time” value (Sprague Dawley rats [1]; 0.1 mg/kg, 1 h post-dose) was 84.4%, the Significance vs. vehicle (Sprague Dawley rats [1]; 0.1 mg/kg, 1 h post-dose) was “Yes (statistically significant (p<=0.05) from vehicle at dose level shown)” and the AUC(0-t) [2] was 5290 ng·h/mL. For the same compound, the bioavailability [2] was 100%, the Tmax [2] was 30 min and the Cmax [2] was 3020 ng/mL. For the same compound, the “CSF Cmax” value [2] was 56.6 ng/mL and the “Brain Cmax” value [2] was 61.2 ng/mL.

`C[C@@H](O)[C@@H](C(N)=O)N1CC2(CCCCC2)C1=O` [Compound AA, (2S,3R)-3-hydroxy-2-(1-oxo-2-azaspiro[3.5]nonan-2-yl)butanamide] gave an AUC(0-t) (IV pharmacokinetics) of 397 ng·h/mL, a half-life (IV pharmacokinetics) of 35.4 min and a C0 (IV pharmacokinetics) of 608 ng/mL. For the same compound, the Vd (IV pharmacokinetics) was 2.23 L/kg, the CI (IV pharmacokinetics) was 84.91 mL/min/kg and the EC50 (NMDAR2B) was under 1 nM. The Emax (NMDAR2B) was under 100%, the Emax (NMDAR2A) was 0% and the “% reduction in float time” value (Sprague Dawley rats [1]; 0.1 mg/kg, 1 h post-dose) was 42.0%. The Significance vs. vehicle (Sprague Dawley rats [1]; 0.1 mg/kg, 1 h post-dose) was “Yes (statistically significant (p<=0.05) from vehicle at dose level shown)”, the “% reduction in float time” value (Sprague Dawley rats [1]; 0.1 mg/kg, 24 h post-dose) was 48.60% and the Significance vs. vehicle (Sprague Dawley rats [1]; 0.1 mg/kg, 24 h post-dose) was “Yes (statistically significant (p<=0.05) from vehicle at dose level shown)”. It also gave an AUC(0-t) [2] of 1540 ng·h/mL, a bioavailability [2] of 78% and a Tmax [2] of 19.8 min. The Cmax [2] was 1230 ng/mL.

With `CNCCC(Oc1ccc(C(F)(F)F)cc1)c1ccccc1` (centres unmarked) [Fluoxetine, reference compound] the “% reduction in float time” value (Sprague Dawley rats [1]; [4]) was 54% and the Significance vs. vehicle (Sprague Dawley rats [1]; [4]) was “Yes (statistically significant (p<=0.05) from vehicle at dose level shown)”.

With `NCC1(CC(=O)O)CCCCC1` [Gabapentin, reference compound] the “% analgesia” value (Sprague Dawley rats [3]; 1 wk post-dosing) was 0%, the “% analgesia” value (Sprague Dawley rats [3]; 1 h post-dosing) was 72% and the “% analgesia” value (Sprague Dawley rats [3]; 1 h post-dosing, listed as gabapentin) was “at least 50%”.
